Experiment in all cases: NCI anticancer screen, dose series, 48 h
For test [1], the system named is ACHN renal.
For test [2], the system named is NCI-H460 lung.
Test [3] concerns HL-60(TB) leukemia.
In test [4] the test system is K-562 leukemia.
Test [5] deals with HT29 colon.
For test [6], the system named is MCF7 breast.
Test [7] relates to SF-268 CNS.
Test [8] deals with RXF 393 renal.
In test [9] the test system is A498 renal.
In test [10] the test system is OVCAR-4 ovarian.

This is an account of results in PubChem BioAssay (NCI).

Each structure is given as a SMILES string. Where “and” joins values, the source holds several entries; their conditions need not be identical. Identical values can stand only once.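 In this assay, cells in 96-well plates receive the compound at five concentrations for 48 hours. Endpoints are linearly interpolated between the surrounding concentrations. GI50: concentration for 50% inhibition of growth. TGI: total growth inhibition.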

`COc1ccc(C(=O)Nc2ccc(O)c(=O)cc2)cc1`: the TGI was determined as 59.8 µM in [1]; 28.7 µM in test [2]; 54.6 µM in test [3]; 77.3 µM in [4]; 44.1 µM in test [5]; 65 µM in test [6]. Further, the TGI in [7] was found to be 63.4 µM; in test [8] it was 37.3 µM.
Take `COc1cc(C(=O)N2CCN(C(=O)c3cc(OC)c(OC)c(OC)c3)C2=S)cc(OC)c1OC`: the GI50 was 17.8 µM in test [1]; 27.2 µM in [2]; 17.7 µM in test [9]; 16 µM in test [3]; 24.9 µM in test [4]; 22.7 µM in [5]. In addition, the GI50 in test [6] is 5.23 µM; in [10], 16.9 µM; in [7], 11.5 µM; in test [8], 14.3 µM. In addition, the TGI in test [1] is 34.5 µM; in [2], 73.6 µM; in test [9], 33 µM; in test [3], 34.3 µM; in test [4], above 100 µM; in [5], 53.2 µM. Besides, the TGI in [6] worked out at 27.6 µM; in [10], 50.1 µM; in test [7], 26.1 µM; in test [8] it was 28.1 µM.
Take `Cc1cc(N[C@@H]2CCC[C@H](Nc3ccnc4cc(Cl)ccc34)C2)nc(N2CCCCCC2)n1`: the GI50 in [1] was 1.83 µM; in test [2] it was 1.58 µM; in test [9], 1.74 µM; in [3] it was 1.7 µM; in test [4], 0.359 µM; in test [5], 1.05 µM. For the same compound, the GI50 in test [6] was 1.43 µM; in test [10], 1.72 µM; in [7], 1.54 µM; in test [8], 1.55 µM. Also, the TGI in test [1] was 3.82 µM; in test [2] it was 3.2 µM; in [9], 3.2 µM; in [3], 3.47 µM; in [4], 1.69 µM; in test [5], 2.98 µM. The TGI worked out at 3.03 µM in test [6], 5.04 µM in test [10], 3.39 µM in test [7] and 3.1 µM in test [8].
Turning to `O=c1c(F)cn(Cc2ccc(C34CC5CC(CC(C5)C3)C4)c(O)c2)c(=O)n1Cc1ccc(C23CC4CC(CC(C4)C2)C3)c(O)c1`, the GI50 is 13.5 µM in [1]; 9.76 µM in test [2]; 14.2 µM in test [9]; 8.32 µM in test [3]; 5.29 µM in test [4]; 13.9 µM in [5]. Besides, the GI50 in test [6] was 9.83 µM; in [10], 14.8 µM; in test [7] it was 12.8 µM; in test [8] it was 6.5 µM. The TGI in test [1] was 26.3 µM; in [2], 37.2 µM; in test [9] it was 27.5 µM; in test [3], 54.2 µM; in [4], above 100 µM; in [5], 29.9 µM. Besides, the TGI in test [6] is 30.6 µM; in test [10] it was 30.8 µM; in test [7] it was 32.6 µM; in test [8], above 100 µM.
With `Cc1nc(Nc2cccnc2)sc1C(=O)/C=C/c1ccc(F)cc1`, the GI50 in [2] is 2.68 µM; in test [9], 7.61 µM; in [4], 2.78 µM; in test [5], 2.76 µM; in [6], 2.29 µM; in test [10] it was 4.29 µM. Further, the figures for the GI50 in [7] and in test [8] were 3.57 µM and 3.01 µM, respectively. Further, the TGI in test [2] is 6.9 µM; in [9], 42.7 µM; in test [4] it was above 100 µM; in test [5] it was 10.1 µM; in [6], above 100 µM; in test [10], above 100 µM. Further, the figures for the TGI in test [7] and in [8] were 31.9 µM and 8.31 µM, respectively.
On to `C[C@@H]1C[C@@H]([C@@H](CC2CC(=O)NC(=O)C2)OC(=O)CC(=O)c2ccccc2)C(=O)[C@@H](C)C1`, for which the GI50 in test [1] was 0.0777 µM; in [2] it was 0.461 µM; in test [9], 0.177 µM; in [3], 0.402 µM; in test [4], 0.682 µM; in test [5], 0.634 µM. The GI50 in [6] is 0.645 µM; in [10], 1.91 µM; in test [7] it was 0.908 µM; in [8] it was 0.496 µM. The TGI in test [1] was above 100 µM; in test [2] it was above 43.9 µM; in [9] it was 2.36 µM; in test [3], above 100 µM; in [4], above 100 µM; in [5], above 100 µM. Moreover, the TGI was above 100 µM in [6], above 100 µM in [10], above 32 µM in test [7] and 25.1 µM in test [8].
Turning to `O=C(/C=C/c1ccc[nH]1)c1ccc(-n2ccc(C(F)(F)F)n2)cc1`, the GI50 was above 100 µM in test [1]; 84.2 µM in [2]; above 100 µM in test [9]; 0.307 µM in test [3]; 38.6 µM in test [4]; above 100 µM in test [5]. In addition, the GI50 in [6] is above 82.2 µM; in test [10], 99.1 µM; in test [7], 3.8 µM; in [8], 3.61 µM. The TGI was above 100 µM in [1]; above 100 µM in test [2]; above 100 µM in test [9]; 4.12 µM in test [3]; above 100 µM in test [4]; above 100 µM in test [5]. Moreover, the TGI in test [6] is above 100 µM; in test [10], above 100 µM; in test [7], above 100 µM; in test [8] it was above 31.2 µM.
Turning to `CCOC(=O)N[C@H]1CCc2cc(OC)c(OC)c(OC)c2-c2ccc(SC)c(=O)cc21`, the TGI in test [1] was above 100 µM; in test [2] it was above 100 µM; in test [3], below 0.01 µM; in test [4], above 100 µM; in test [6] it was above 100 µM; in test [10], above 100 µM. Besides, the TGI in test [7] is 47.2 µM and > 100 µM; in [8] it was above 100 µM. For the same compound, the GI50 in [10] was 0.0677 µM.
